What all share (assay): relative viability (nuclei count vs DMSO), 5 days (fraction); higher = more cells survive
Compound in the test “Veliparib + Phenformin”: C[C@]1(c2nc3c(C(N)=O)cccc3[nH]2)CCCN1 [Veliparib] + N=C(N)NC(=N)NCCc1ccccc1 [Phenformin] (partner 250 µM)
Summed up: (§1)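 Lung cancer cell lines in 1536-well plates were dosed by pin tool the day after seeding, either with one drug alone or with a fixed anchor-drug dose plus five library-drug doses (not always all listed) in √10 steps. After 5 days, cells were fixed and their nuclei stained in one step (final 0.05% Triton X-100, 1% formaldehyde, 1 ug/ml Hoechst), then counted on 4× images. Relative viability is the nuclei count in treated wells divided by that in vehicle wells. Values are medians of duplicate plates.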

Compound in the test “Veliparib + Palbociclib”: C[C@]1(c2nc3c(C(N)=O)cccc3[nH]2)CCCN1 [Veliparib] + CC(=O)c1c(C)c2cnc(Nc3ccc(N4CCNCC4)cn3)nc2n(C2CCCC2)c1=O [Palbociclib] (partner 0.5 µM)
The gist of the method: as §1

Compound in test [1]: COC1=CC=C(C=C1)CN2C=CC3=C2C=C(C=C3)C(=O)NO + CCNC(=O)c1noc(-c2cc(C(C)C)c(O)cc2O)c1-c1ccc(CN2CCOCC2)cc1 [Luminespib] (partner 0.01 µM)
Summed up: as §1

Compound in the test “Veliparib + Olaparib”: C[C@]1(c2nc3c(C(N)=O)cccc3[nH]2)CCCN1 [Veliparib] + O=C(c1cc(Cc2n[nH]c(=O)c3ccccc23)ccc1F)N1CCN(C(=O)C2CC2)CC1 [Olaparib] (partner 8 µM)
Summed up:
as §1

For SW 1573, the relative viability was determined as 0.32 in the test with Veliparib + Phenformin (first compound 0.06325 µM); 0.419 with Veliparib + Phenformin (first compound 0.2 µM); 0.324 in the test with Veliparib + Phenformin (first compound 0.6325 µM); 0.4 with Veliparib + Phenformin (first compound 2 µM); 0.337 with Veliparib + Palbociclib (first compound 0.06325 µM); 0.431 in the test with Veliparib + Palbociclib (first compound 0.2 µM). Moreover, the relative viability with Veliparib + Palbociclib (first compound 0.6325 µM) was 0.382; with Veliparib + Palbociclib (first compound 2 µM) it was 0.445; in test [1] (first compound 0.253 µM), 0.522; in test [1] (first compound 0.8 µM) it was 0.279; in test [1] (first compound 2.53 µM), 0.298; in test [1] (first compound 8 µM) it was 0.491. Further, the relative viability with Veliparib + Olaparib (first compound 0.02 µM) amounted to 0.57; in the test with Veliparib + Olaparib (first compound 0.06325 µM) it was 0.428; with Veliparib + Olaparib (first compound 0.2 µM) it was 0.464; with Veliparib + Olaparib (first compound 0.6325 µM), 0.42; in the test with Veliparib + Olaparib (first compound 2 µM), 0.442.

For the origin of these results see the supplement of paper PMC10307832.
